Test system: murine CD45+CD4+CD25+ Tregs
Assay: Treg suppression assay: pre-treated Tregs co-cultured with CFSE-labeled effector T cells, flow cytometry
Format: cell-based, mouse
Details: Tregs pre-treated 10 nM for 3 hours, 1:4 ratio, 4 days
Procedure: Murine CD45+CD4+CD25+ Tregs and CD45+CD4+CD25− effector T cells were isolated from healthy mice using a StemCell mouse Treg Isolation Kit (StemCell Technologies, Cambridge, MA). The cells were used in two different assays.
First, Tregs that were either pre-treated with 10 nM TLR7-1A agonist for 3 hours or left untreated were co-cultured with CFSE-labeled effector T cells at 1:4 ratio, with or without CD3/CD28 activation beads. Incubation proceeded for 4 days before flow cytometry analysis.

## CCCCc1nc2c(N)nc3ccccc3c2n1CC(C)(C)CO [TLR7-1A agonist, 3-(4-amino-2-butyl-1H-imidazo[4,5-c]quinolin-1-yl)-2,2-dimethylpropan-1-ol]
  effect on Treg suppression of CD4+ T cell proliferation: reversed the suppressive activity
